Laboratory results from patent US20250230193A1, “CYCLIC COMPOUND HAVING SELECTIVE KRAS INHIBITORY EFFECT ON HRAS AND NRAS” (CHUGAI SEIYAKU KABUSHIKI KAISHA, priority 2022, published 2025).
Where a SMILES comes first, the peptide text is derived from it. Bridges are numbered along the chain shown (N, C = ends). [ ]: non-standard residue; d: D form. The star is where a group is joined. hPhe(3-Cl-4-CF3) = N[C@@H](CCc1ccc(C(F)(F)F)c(Cl)c1)C(=O)O; NPrPhe(4-CF3) = CCCN[C@@H](Cc1ccc(C(F)(F)F)cc1)C(=O)O; NMeGly(cPent) = CN[C@H](C(=O)O)C1CCCC1; Hyp = O=C(O)[C@@H]1C[C@@H](O)CN1; NMeD = CN[C@@H](CC(=O)O)C(=O)O; NMeL = CN[C@@H](CC(C)C)C(=O)O; Morpholide = C1CN(*)CCO1; Ac5c = NC1(C(=O)O)CCCC1; Sar = CNCC(=O)O

Tests used:
[1] = molecular target: GDP-bound NRAS wild-type protein (Homo sapiens, UniProt P01111); experiment: Binding to NRAS by surface plasmon resonance (SPR), Single Cycle Kinetics; details: for NRAS/KRAS (ratio of KD value for NRAS to KD value for KRAS) / NRAS/KRAS (ratio of KD value with respect to NRAS to KD value with respect to KRAS): GDP-bound NRAS wild-type vs GDP-bound KRAS wild-type
Chain of GDP-bound NRAS wild-type protein (P01111 whole entry): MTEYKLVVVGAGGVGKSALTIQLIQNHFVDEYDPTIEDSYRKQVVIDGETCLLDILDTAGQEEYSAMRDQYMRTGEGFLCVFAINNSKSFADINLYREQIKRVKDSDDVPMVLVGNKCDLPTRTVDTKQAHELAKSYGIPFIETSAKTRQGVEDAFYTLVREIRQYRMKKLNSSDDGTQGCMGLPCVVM

[2] = molecular target: GDP-bound HRAS wild-type protein (Homo sapiens, UniProt P01112); experiment: Binding to HRAS by surface plasmon resonance (SPR), Single Cycle Kinetics; details: for HRAS/KRAS (ratio of KD value for HRAS to KD value for KRAS) / HRAS/KRAS (ratio of KD value with respect to HRAS to KD value with respect to KRAS): GDP-bound HRAS wild-type vs GDP-bound KRAS wild-type
Chain of GDP-bound HRAS wild-type protein (P01112 whole entry): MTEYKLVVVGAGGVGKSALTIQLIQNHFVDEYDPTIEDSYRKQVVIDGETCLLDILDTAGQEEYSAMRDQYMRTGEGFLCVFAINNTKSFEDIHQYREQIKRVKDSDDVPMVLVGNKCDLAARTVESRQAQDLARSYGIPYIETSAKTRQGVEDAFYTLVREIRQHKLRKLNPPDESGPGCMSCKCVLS

CCCN1C(=O)CN(C)C(=O)CN(C)C(=O)[C@H]([C@@H](C)CC)NC(=O)[C@H](CC(C)C)N(C)C(=O)C[C@@H](C(=O)N2CCOCC2)N(C)C(=O)[C@H](C2CCCC2)N(C)C(=O)C2(CCCC2)NC(=O)[C@@H]2C[C@@H](O)CN2C(=O)[C@H](CCc2ccc(C(F)(F)F)c(Cl)c2)NC(=O)CN(C)C(=O)[C@@H]1Cc1ccc(C(F)(F)F)cc1 [PP0241] ([NMeL]I[Sar][Sar][NPrPhe(4-CF3)][Sar][hPhe(3-Cl-4-CF3)][Hyp][Ac5c][NMeGly(cPent)][NMeD]-Morpholide; lactam N-11)
NRAS/KRAS (ratio of KD for GDP-bound NRAS wild-type to KD for KRAS) ([1]; KD ratio NRAS/KRAS, SPR): B (a compound having 3 or more and less than 10 is denoted as B)
HRAS/KRAS (ratio of KD for GDP-bound HRAS wild-type to KD for KRAS) ([2]; KD ratio HRAS/KRAS, SPR): C (A compound having a KD ratio of 0.1 or more and less than 3 is denoted as C)

CC[C@H](C)[C@@H]1NC(=O)[C@H](CC(C)C)N(C)C(=O)C[C@@H](C(=O)N2CCOCC2)N(C)C(=O)[C@H](C2CCCC2)N(C)C(=O)C2(CCCC2)NC(=O)[C@H](C)N(CC)C(=O)[C@H](CCc2cc(F)c(C(F)(F)F)c(F)c2)NC(=O)CN(C)C(=O)[C@H](Cc2ccc(C(F)(F)F)cc2)N2CCCC[C@@H](C2=O)N(C)C(=O)CN(C)C1=O [PP0589]
NRAS/KRAS (ratio of KD value with respect to GDP-bound NRAS wild-type protein to KD value with respect to KRAS) ([1]; KD ratio NRAS/KRAS, SPR): B (a compound having 3 or more and less than 10 is denoted as B)
HRAS/KRAS (ratio of KD value with respect to GDP-bound HRAS wild-type protein to KD value with respect to KRAS) ([2]; KD ratio HRAS/KRAS, SPR): B (a compound having 3 or more and less than 10 is denoted as B)

CCCN(C)C(=O)[C@@H]1CC(=O)N(C)[C@@H](C2CCC2)C(=O)N[C@@H]([C@@H](C)CC)C(=O)N(C)CC(=O)N(C)[C@H]2C/C=C\CCN(C2=O)[C@@H](Cc2ccc(C(F)(F)F)cc2)C(=O)N(C)CC(=O)N[C@@H](CCc2cc(F)c(C(F)(F)F)c(F)c2)C(=O)N2C[C@H](OCC)C[C@H]2C(=O)NC2(CCC2)C(=O)N(C)[C@@H](C2CCCC2)C(=O)N1C [PP1998]
NRAS/KRAS (ratio of KD value for NRAS to KD value for KRAS) ([1]; KD ratio, SPR): A (a compound having 10 or more and less than 20 is denoted as A)
HRAS/KRAS (ratio of KD value for HRAS to KD value for KRAS) ([2]; KD ratio, SPR): B (a compound having 3 or more and less than 10 is denoted as B)

CCC[C@H]1C(=O)N[C@@H]([C@@H](C)CC)C(=O)N(CCC)CC(=O)N(C)[C@H]2C/C=C\CCN(C2=O)[C@@H](Cc2ccc(C)cc2)C(=O)N(C)CC(=O)N[C@@H](CCc2cc(F)c(C(F)(F)F)c(F)c2)C(=O)N2C[C@H](OCC)C[C@H]2C(=O)NC2(CC(C)(C)C2)C(=O)N(C)[C@@H](C2CCCC2)C(=O)N(C)[C@H](C(=O)N(C)C)CC(=O)N1C [PP2108]
NRAS/KRAS (ratio of KD value with respect to NRAS to KD value with respect to KRAS) ([1]; SPR): A (a compound having 10 or more and less than 20 is denoted as A)
HRAS/KRAS (ratio of KD value with respect to HRAS to KD value with respect to KRAS) ([2]; SPR): A (a compound having 10 or more and less than 20 is denoted as A)

CCO[C@@H]1C[C@H]2C(=O)NC3(CC(C)(C)C3)C(=O)N(C)[C@@H](C3CCCC3)C(=O)N(C)[C@H](C(=O)N(C)C)CC(=O)N(C)[C@@H](CC)C(=O)N[C@@H]([C@@H](C)CC)C(=O)N(C)CC(=O)N(C)[C@H]3C/C=C\CCN(C3=O)[C@@H](Cc3ccc(C(F)(F)F)cc3)C(=O)N(C)CC(=O)N[C@@H](CCc3ccc(C(F)(F)F)c(Cl)c3)C(=O)N2C1 [PP1746]
NRAS/KRAS (ratio of KD value for NRAS to KD value for KRAS) ([1]; KD ratio, SPR): A (a compound having 10 or more and less than 20 is denoted as A)
HRAS/KRAS (ratio of KD value for HRAS to KD value for KRAS) ([2]; KD ratio, SPR): A (a compound having 10 or more and less than 20 is denoted as A)

CCO[C@@H]1C[C@H]2C(=O)NC3(CCC3)C(=O)N(C)[C@@H](C(C)(C)C)C(=O)N(C)[C@H](C(=O)N3CCOCC3)CC(=O)N(C)[C@@H](CC(C)C)C(=O)N[C@@H]([C@@H](C)CC)C(=O)N(C)CC(=O)N(C)[C@H]3CCCCN(C3=O)[C@@H](Cc3ccc(C(F)(F)F)cc3)C(=O)N(C)CC(=O)N[C@@H](CCc3cc(F)c(C(F)(F)F)c(F)c3)C(=O)N2C1 [PP0814]
NRAS/KRAS (ratio of KD value with respect to NRAS to KD value with respect to KRAS) ([1]; KD ratio, SPR): B (a compound having 3 or more and less than 10 is denoted as B)
HRAS/KRAS (ratio of KD value with respect to HRAS to KD value with respect to KRAS) ([2]; KD ratio, SPR): B (a compound having 3 or more and less than 10 is denoted as B)

CCC[C@H]1C(=O)N[C@@H]([C@@H](C)CC)C(=O)N(C)CC(=O)N(C)[C@H]2C/C=C\CCN(C2=O)[C@@H](Cc2ccc(C(F)(F)F)cc2)C(=O)N(C)CC(=O)N[C@@H](CCc2ccc(C(F)(F)F)c(OC)c2)C(=O)N2CCCCC[C@H]2C(=O)NC2(CC(C)(C)C2)C(=O)N(C)[C@@H](C(CC)CC)C(=O)N(C)[C@H](C(=O)N(C)C)CC(=O)N1C [PP2968]
NRAS/KRAS (ratio of KD value with respect to GDP-bound NRAS wild-type protein to KD value with respect to KRAS) ([1]; KD ratio NRAS/KRAS, class symbols): AA (a compound having 20 or more is denoted as AA)
HRAS/KRAS (ratio of KD value with respect to GDP-bound HRAS wild-type protein to KD value with respect to KRAS) ([2]; KD ratio HRAS/KRAS, class symbols): A (a compound having 10 or more and less than 20 is denoted as A)
